In patent publication US20080113421A1, “Stabilizing proteins against denaturation and inactivation by charged detergents using chemical modifications, including modifications that increase net charge” (President and Fellows of Harvard College, priority 2006, published 2008):

Tests used:
BCA = target: T1, BCA (Bos taurus, UniProt P00921); experiment: Effect of DNSA present in the denaturing solution on rate of SDS denaturation; design: species or system bovine; conditions: DNSA present with the protein in the denaturing SDS solution
T1 construct: purchased Sigma-Aldrich (St. Louis, Mo.)
Experimental: The kinetics of unfolding were determined as follows. The rates of denaturation of BCA and BCA-Ac18 were measured by incubating the protein (200 nM) in solutions of different concentrations of SDS. Immediately prior to the measurement, an aliquot of solution containing protein and SDS was mixed with a solution containing DNSA and the same concentration of SDS; this protocol minimized the possibility that DNSA might stabilize the native conformation of the protein, and influence the rate of its denaturation. When BCA was denatured in concentrations of SDS of 4 mM and higher, DNSA was added to the original, denaturing solution because the rate of denaturation was too fast to follow with manual mixing of aliquots of protein and DNSA. It was observed that DNSA, when present with the protein in the denaturing solution, reduced the rates of denaturation by factors of about 2-10.

Surface area calculation = experiment: Surface area calculation
Experimental: A surface area calculation was also performed to determine the change in surface area between the conversion of BCA to BCA-Ac18 and BCA to BCA-Hex18. It was calculated that the reaction with acetic anhydride changed the surface area of BCA by 400 Å^2 and the reaction with hexanoic anhydride changed the surface area of BCA by 1180 Å^2. Since this change is a factor of 2.9, it can be concluded that this estimate that each modification with hexanoic anhydride adds three times the amount of surface area than modification with acetic anhydride is justified.

T1 sequence (P00921 whole entry): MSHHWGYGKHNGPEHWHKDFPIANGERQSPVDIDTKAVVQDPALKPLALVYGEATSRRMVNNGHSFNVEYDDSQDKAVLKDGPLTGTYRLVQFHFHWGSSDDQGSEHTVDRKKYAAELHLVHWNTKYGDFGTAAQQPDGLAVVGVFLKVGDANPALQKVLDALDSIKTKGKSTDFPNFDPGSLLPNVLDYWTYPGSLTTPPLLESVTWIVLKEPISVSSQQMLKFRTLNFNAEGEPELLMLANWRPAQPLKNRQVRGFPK

CN(C)c1cccc2c(S(N)(=O)=O)cccc12 [DNSA, Dansyl amide]
factor by which rates of denaturation are reduced (BCA): 2-10

BCA-Hex18: BCA with all 18 lysines modified with hexanoic anhydride
ratio of surface area change, hexanoic vs acetic anhydride (Surface area calculation): 2.9
